Measurements: article PMC9904277, “Rational design of Harakiri (HRK)-derived constrained peptides as BCL-xL inhibitors” (Chemical Communications (Cambridge, England), 2023)
*1 amine or outer side, *2 acyl side, *3 side chain or, on linkers, in order; H or OH if unused. Where a SMILES comes first, the peptide text is derived from it. Bridges are numbered along the chain shown (N, C = ends). [ ]: non-standard residue; d: D form. The star is where a group is joined. 5FAM = O=C1OC2(c3ccc(O)cc3Oc3cc(O)ccc32)c2ccc(C(=O)*)cc21; Maleimide(3,4-diyl) = O=C1NC(=O)C([*:2])=C1[*:1]; Nle = CCCC[C@H](N)C(=O)O; Ahx = NCCCCCC(=O)O

Assays:
MCL-1 [1] = target: T1, MCL-1 (Homo sapiens, UniProt Q07820); experiment: biochemical
T1 sequence (Q07820 172-327): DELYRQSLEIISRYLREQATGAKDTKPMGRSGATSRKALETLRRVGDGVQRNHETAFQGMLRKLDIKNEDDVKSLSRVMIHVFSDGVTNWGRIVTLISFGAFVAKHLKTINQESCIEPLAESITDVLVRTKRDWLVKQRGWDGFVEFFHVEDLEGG

MCL-1 [2] = target: T1, MCL-1; conditions: IC50 HRK/MCL-1 divided by IC50 HRK/BCL-xL
BCL-xL = target: T2, BCL-xL (Homo sapiens, UniProt Q07817, DEL27-82); experiment: Direct FA titration of FAM-labelled tracer with BCL-xL; format: binding; conditions: FAM-Ahx-Beclin-1 150 nM, BCL-xL 6 nM-125 μM, 25 mM Tris, 150 mM NaCl, pH 7.4, 20 °C
T2 construct: BCL-2, 1-209; His-SUMO (N, cleaved yes); made in house; host or cells: E. coli BL21
T2 sequence (Q07817 with tags, fused parts or gaps DEL27-82): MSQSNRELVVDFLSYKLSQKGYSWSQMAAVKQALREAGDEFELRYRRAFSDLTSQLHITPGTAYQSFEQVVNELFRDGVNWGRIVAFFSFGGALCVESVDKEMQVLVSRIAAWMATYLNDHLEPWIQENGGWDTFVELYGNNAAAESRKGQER

Row | Compound | IC50 (MCL-1 [1]) | IC50 ratio MCL-1 : BCL-xL (selectivity index) (MCL-1 [2]) | Kd (BCL-xL)
1 | Ac-SAAQLYAARLKALGDELHQ-NH2 [HRK-1] | > 50 µM | > 5.8 | 
2 | Ac-SAAQLLAARLKAFGDEFHQ-NH2 [HRK-5] | 16 ± 4.4 µM | 16.0 | 
3 | CSCC[C@H](NC(=O)[C@H](CCCNC(=N)N)NC(=O)[C@H](CCCNC(=N)N)NC(=O)[C@H](CC(C)C)NC(=O)[C@H](CCC(=O)O)NC(=O)[C@H](CCCNC(=N)N)NC(=O)CNC(=O)[C@H](Cc1ccc(O)cc1)NC(=O)[C@H](CCCNC(=N)N)NC(=O)[C@H](CCC(N)=O)NC(=O)[C@H](C)NC(=O)[C@H](C)NC(=O)[C@H](Cc1c[nH]c2ccccc12)NC(=O)[C@H](CC(C)C)NC(=O)[C@H](CC(N)=O)NC(C)=O)C(=O)N[C@@H](CO)C(=O)N[C@@H](CC(=O)O)C(=O)N[C@@H](CCC(=O)O)C(=O)N[C@@H](Cc1ccccc1)C(=O)N[C@H](C(=O)N[C@@H](CC(=O)O)C(=O)N[C@@H](CO)C(=O)N[C@@H](Cc1ccccc1)C(=O)N[C@@H](CCCCN)C(=O)N[C@@H](CCCCN)C(N)=O)C(C)C [BAD-wt, reference compound] | > 50 µM |  | 
4 | Ac-RYGRELRRMSDEFVDSFKK-NH2 [BAD-s, reference compound] | > 50 µM |  | 
5 | CC[C@H](C)[C@H](NC(=O)[C@H](CC(=O)O)NC(=O)[C@H](Cc1ccccc1)NC(=O)[C@H](CC(C)C)NC(=O)[C@H](CC(=O)O)NC(=O)CNC(=O)[C@@H](NC(=O)[C@@H](NC(=O)[C@H](CCCCN)NC(=O)[C@H](CC(C)C)NC(=O)[C@H](CCCNC(=N)N)NC(=O)[C@H](CCCNC(=N)N)NC(=O)[C@H](CO)NC(=O)[C@H](CC(C)C)NC(=O)[C@H](CC(N)=O)NC(=O)[C@H](CCC(=O)O)NC(=O)[C@H](CCSC)NC(=O)[C@@H](NC(=O)CCCCCNC(=O)c1ccc2c(c1)C(=O)OC21c2ccc(O)cc2Oc2cc(O)ccc21)[C@@H](C)O)C(C)C)[C@@H](C)O)C(=O)N[C@@H](CCSC)C(=O)N[C@@H](CO)C(N)=O [FAM-Ahx-Beclin-1] ({5FAM-Ahx}-TMENLSRRLKVTGDLFDIMS-NH2) |  |  | 9.7 ± 2.3 µM
6 | CSCC[C@H](NC(=O)[C@@H](NC(=O)[C@H](CCCNC(=N)N)NC(=O)[C@H](CCC(N)=O)NC(=O)[C@H](Cc1c[nH]cn1)NC(=O)[C@H](CC(C)C)NC(=O)[C@H](CCC(=O)O)NC(=O)[C@H](CC(=O)O)NC(=O)CNC(=O)[C@H](CC(C)C)NC(=O)[C@H](CS)NC(=O)[C@H](CCCCN)NC(=O)[C@H](CC(C)C)NC(=O)[C@H](CCCNC(=N)N)NC(=O)[C@H](CS)NC(=O)[C@H](C)NC(=O)[C@@H](NC(=O)[C@H](CC(C)C)NC(=O)[C@H](CCC(N)=O)NC(=O)[C@H](C)NC(=O)[C@H](C)NC(=O)[C@H](CO)NC(C)=O)[C@@H](C)O)[C@@H](C)O)C(=O)N[C@@H](Cc1c[nH]c2ccccc12)C(N)=O [HRKC4] (Ac-SAAQLTACRLKCLGDELHQRTMW-NH2) | 3.9 ± 0.2 µM |  | 
7 | CCCC[C@H](NC(=O)[C@H](C)NC(=O)[C@H](CCCCN)NC(=O)[C@H](CC(C)C)NC(=O)[C@H](CCCNC(=N)N)NC(=O)[C@H](C)NC(=O)[C@H](C)NC(=O)[C@H](Cc1ccc(O)cc1)NC(=O)[C@H](CC(C)C)NC(=O)[C@H](CCC(N)=O)NC(=O)[C@H](C)NC(=O)[C@H](C)NC(=O)[C@H](CO)NC(C)=O)C(=O)NCC(=O)N[C@@H](CC(=O)O)C(=O)N[C@@H](CCC(=O)O)C(=O)N[C@@H](Cc1ccccc1)C(=O)N[C@@H](Cc1c[nH]cn1)C(=O)N[C@@H](CCC(N)=O)C(N)=O [HRK-3] (Ac-SAAQLYAARLKA[Nle]GDEFHQ-NH2) | > 50 µM |  | 
8 | Ac-SAAQLLAARLKALGDELHQ-NH2 [HRK-4] | 3.5 ± 1.2 µM | 2.5 | 
9 | Ac-SAAQLYAARLKALGDEFHQ-NH2 [HRK-2] | > 50 µM | > 45.4 | 
10 | CC(=O)N[C@@H](CO)C(=O)N[C@@H](C)C(=O)N[C@@H](C)C(=O)N[C@@H](CCC(N)=O)C(=O)N[C@@H](CC(C)C)C(=O)N[C@@H](Cc1ccc(O)cc1)C(=O)N[C@@H](C)C(=O)N[C@H]1CSC2=C(SC[C@@H](C(=O)N[C@@H](Cc3ccccc3)C(=O)NCC(=O)N[C@@H](CC(=O)O)C(=O)N[C@@H](CCC(=O)O)C(=O)N[C@@H](Cc3ccccc3)C(=O)N[C@@H](Cc3c[nH]cn3)C(=O)N[C@@H](CCC(N)=O)C(N)=O)NC(=O)[C@H](CCCCN)NC(=O)[C@H](CC(C)C)NC(=O)[C@H](CCCNC(=N)N)NC1=O)C(=O)NC2=O [HRKS4H] (Ac-SAAQLYACRLKCFGDEFHQ-NH2; linker 8-12 via Maleimide(3,4-diyl)) | > 50 µM | >5.9 | 
11 | Ac-SAAQLTAARLKALGDELHQ-NH2 [HRK-s] | > 50 µM | > 2.3 | 
12 | CC(=O)N[C@@H](CO)C(=O)N[C@@H](C)C(=O)N[C@@H](C)C(=O)N[C@@H](CCC(N)=O)C(=O)N[C@@H](CC(C)C)C(=O)N[C@@H](Cc1ccc(O)cc1)C(=O)N[C@@H](C)C(=O)N[C@@H](CS)C(=O)N[C@@H](CCCNC(=N)N)C(=O)N[C@@H](CC(C)C)C(=O)N[C@@H](CCCCN)C(=O)N[C@@H](CS)C(=O)N[C@@H](Cc1ccccc1)C(=O)NCC(=O)N[C@@H](CC(=O)O)C(=O)N[C@@H](CCC(=O)O)C(=O)N[C@@H](Cc1ccccc1)C(=O)N[C@@H](Cc1c[nH]cn1)C(=O)N[C@@H](CCC(N)=O)C(N)=O [HRKC4H] (Ac-SAAQLYACRLKCFGDEFHQ-NH2) | > 50 µM | >2.5 | 
13 | Ac-SAAQLYAARLKAFGDEFHQ-NH2 [HRK-hybrid] | > 50 µM | >55.5 | 
